Measurements reported in patent US20150307520A1, “NOVEL HETEROARYL AND HETEROCYCLE COMPOUNDS, COMPOSITIONS AND METHODS THEREOF” (HUTCHISON MEDIPHARMA LIMITED, priority 2012, published 2015).

Tests used:
Type in all cases: biochemical
p110β/p85α = p110β/p85α (Homo sapiens, UniProt P42338); assay: Transcreener KINASE Assay, kinase inhibition of p110β/p85α; details: for PI3Kβ IH % @ 1 uM: 1 uM test compound; for IC50: read-out: PI3Kβ IC50
How it was run: (§1)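 Steps: compound (2% DMSO final) plus enzyme in HEPES/NaCl/EGTA/CHAPS/3 mM MgCl2/1 mM DTT buffer; start with PIP2/ATP addition (30 uM/10 uM solution); 80 min RT; add ADP detection mix, 60 min RT; read fluorescence polarization.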

p110δ/p85α = p110δ/p85α (Homo sapiens, UniProt O00329); assay: Transcreener KINASE Assay, kinase inhibition of p110δ/p85α; details: for PI3Kδ IH % @ 1 uM: 1 uM test compound; for IC50: read-out: PI3Kδ IC50
Chain of p110δ/p85α (O00329 whole entry): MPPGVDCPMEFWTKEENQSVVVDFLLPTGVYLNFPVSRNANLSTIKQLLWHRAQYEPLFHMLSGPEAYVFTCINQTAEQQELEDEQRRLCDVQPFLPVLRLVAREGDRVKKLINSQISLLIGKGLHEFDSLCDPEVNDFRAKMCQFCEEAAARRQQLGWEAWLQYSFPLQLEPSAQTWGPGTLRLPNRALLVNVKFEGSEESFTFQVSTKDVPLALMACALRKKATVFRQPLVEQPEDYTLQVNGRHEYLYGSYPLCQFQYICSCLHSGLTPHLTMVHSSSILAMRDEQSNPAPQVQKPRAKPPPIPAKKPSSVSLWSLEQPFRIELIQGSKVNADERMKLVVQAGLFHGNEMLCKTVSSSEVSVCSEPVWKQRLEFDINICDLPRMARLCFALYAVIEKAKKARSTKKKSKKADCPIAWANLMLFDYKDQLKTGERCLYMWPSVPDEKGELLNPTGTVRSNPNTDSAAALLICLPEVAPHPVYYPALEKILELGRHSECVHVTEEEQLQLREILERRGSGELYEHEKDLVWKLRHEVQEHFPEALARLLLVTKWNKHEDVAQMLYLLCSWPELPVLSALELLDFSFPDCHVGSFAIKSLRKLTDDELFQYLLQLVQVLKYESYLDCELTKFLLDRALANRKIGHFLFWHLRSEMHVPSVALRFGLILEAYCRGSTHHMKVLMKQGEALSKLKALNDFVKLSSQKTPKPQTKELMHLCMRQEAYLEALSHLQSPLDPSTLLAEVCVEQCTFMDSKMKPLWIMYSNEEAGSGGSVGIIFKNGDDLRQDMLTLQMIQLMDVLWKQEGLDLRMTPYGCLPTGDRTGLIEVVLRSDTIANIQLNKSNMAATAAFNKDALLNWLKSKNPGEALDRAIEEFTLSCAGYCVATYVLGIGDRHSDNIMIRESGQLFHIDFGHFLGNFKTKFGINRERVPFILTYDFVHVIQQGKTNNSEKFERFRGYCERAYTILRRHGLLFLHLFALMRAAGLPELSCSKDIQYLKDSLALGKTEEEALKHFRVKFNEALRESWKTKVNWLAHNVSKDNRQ
Chain of p110δ/p85α (P27986 whole entry partner): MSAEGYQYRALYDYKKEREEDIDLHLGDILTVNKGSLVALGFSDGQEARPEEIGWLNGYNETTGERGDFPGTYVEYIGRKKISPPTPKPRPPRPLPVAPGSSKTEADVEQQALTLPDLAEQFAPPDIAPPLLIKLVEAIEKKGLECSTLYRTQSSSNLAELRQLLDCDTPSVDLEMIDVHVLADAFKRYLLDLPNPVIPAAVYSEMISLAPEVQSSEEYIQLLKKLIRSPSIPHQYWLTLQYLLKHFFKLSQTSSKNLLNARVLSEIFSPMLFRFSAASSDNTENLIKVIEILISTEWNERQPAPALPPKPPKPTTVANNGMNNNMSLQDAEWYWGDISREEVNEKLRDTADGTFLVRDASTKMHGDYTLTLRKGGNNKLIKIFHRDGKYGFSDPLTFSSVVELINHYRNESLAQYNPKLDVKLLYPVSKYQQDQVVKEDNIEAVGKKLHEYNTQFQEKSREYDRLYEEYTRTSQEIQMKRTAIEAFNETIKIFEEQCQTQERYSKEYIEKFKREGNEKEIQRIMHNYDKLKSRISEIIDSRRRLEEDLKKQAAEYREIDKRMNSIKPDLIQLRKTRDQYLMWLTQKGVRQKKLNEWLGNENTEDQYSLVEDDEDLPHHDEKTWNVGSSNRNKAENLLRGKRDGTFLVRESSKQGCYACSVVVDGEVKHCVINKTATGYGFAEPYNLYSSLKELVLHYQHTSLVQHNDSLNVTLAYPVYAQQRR
How it was run: as §1

p110γ = p110γ (Homo sapiens, UniProt P48736); assay: Transcreener KINASE Assay, kinase inhibition of p110γ; details: for PI3Kγ IH % @ 1 uM: 1 uM test compound; for IC50: read-out: PI3Kγ IC50
Chain of p110γ (P48736 whole entry, canonical isoform): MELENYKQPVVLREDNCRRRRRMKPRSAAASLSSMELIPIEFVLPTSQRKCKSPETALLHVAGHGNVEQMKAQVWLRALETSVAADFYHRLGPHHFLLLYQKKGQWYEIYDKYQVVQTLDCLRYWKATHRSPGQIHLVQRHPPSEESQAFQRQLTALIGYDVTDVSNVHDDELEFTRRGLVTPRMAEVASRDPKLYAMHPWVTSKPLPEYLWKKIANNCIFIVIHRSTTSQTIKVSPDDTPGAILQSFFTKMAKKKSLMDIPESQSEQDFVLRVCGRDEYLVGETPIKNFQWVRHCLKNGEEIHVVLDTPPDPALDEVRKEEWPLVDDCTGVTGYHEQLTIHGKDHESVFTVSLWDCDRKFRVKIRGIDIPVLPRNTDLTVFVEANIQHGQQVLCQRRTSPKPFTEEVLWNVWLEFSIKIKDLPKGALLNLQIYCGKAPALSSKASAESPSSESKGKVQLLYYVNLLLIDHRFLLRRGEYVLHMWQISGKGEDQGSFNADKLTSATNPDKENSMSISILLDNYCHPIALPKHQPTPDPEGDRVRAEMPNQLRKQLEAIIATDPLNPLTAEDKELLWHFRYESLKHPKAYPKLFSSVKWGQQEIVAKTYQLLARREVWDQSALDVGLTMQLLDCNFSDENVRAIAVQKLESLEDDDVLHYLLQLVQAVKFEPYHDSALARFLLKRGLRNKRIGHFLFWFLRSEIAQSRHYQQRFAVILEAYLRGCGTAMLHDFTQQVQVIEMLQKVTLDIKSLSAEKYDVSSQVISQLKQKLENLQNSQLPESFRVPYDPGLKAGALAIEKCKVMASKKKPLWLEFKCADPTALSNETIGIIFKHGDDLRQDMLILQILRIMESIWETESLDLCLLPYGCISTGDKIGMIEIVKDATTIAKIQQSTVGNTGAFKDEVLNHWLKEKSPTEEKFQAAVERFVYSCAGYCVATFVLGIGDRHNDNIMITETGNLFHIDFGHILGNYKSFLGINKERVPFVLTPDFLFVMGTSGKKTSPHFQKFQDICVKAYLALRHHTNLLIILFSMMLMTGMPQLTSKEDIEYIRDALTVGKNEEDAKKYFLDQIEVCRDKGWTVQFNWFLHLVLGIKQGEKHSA
How it was run: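 Kinase activity is monitored as ADP formation, detected by competitive fluorescence polarization with a far-red tracer. Recombinant isoform complexes react for 80 min at room temperature before a 60 min detection step. IC50 values come from fitted dose-response data.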

Chain of p110β/p85α (P42338 whole entry): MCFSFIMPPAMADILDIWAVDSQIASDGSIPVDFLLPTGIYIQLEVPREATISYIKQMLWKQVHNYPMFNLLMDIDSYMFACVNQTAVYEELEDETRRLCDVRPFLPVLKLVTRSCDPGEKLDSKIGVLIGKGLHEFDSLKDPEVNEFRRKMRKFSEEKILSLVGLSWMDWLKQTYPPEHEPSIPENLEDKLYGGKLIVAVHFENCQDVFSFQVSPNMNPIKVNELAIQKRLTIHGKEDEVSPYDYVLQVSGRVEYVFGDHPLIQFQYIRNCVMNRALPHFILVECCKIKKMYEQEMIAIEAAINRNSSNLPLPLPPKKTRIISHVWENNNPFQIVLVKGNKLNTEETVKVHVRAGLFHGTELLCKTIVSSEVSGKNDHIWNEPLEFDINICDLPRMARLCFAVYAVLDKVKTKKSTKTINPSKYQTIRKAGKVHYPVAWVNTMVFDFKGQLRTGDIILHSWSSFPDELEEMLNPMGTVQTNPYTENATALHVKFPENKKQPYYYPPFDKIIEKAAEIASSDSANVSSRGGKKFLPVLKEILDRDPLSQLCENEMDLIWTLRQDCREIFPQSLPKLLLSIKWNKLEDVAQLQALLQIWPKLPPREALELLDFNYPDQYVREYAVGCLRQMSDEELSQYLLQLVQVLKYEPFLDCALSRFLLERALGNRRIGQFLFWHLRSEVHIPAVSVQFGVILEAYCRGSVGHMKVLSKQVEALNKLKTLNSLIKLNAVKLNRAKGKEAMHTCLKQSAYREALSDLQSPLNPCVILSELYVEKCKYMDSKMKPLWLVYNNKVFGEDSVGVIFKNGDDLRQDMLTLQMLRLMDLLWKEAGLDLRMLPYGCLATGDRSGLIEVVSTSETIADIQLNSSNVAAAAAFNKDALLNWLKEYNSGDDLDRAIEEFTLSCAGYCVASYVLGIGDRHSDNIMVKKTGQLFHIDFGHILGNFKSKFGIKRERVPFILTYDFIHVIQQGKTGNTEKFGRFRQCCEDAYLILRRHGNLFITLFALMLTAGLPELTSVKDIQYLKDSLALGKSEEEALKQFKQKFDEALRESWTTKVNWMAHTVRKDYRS
Chain of p110β/p85α (P27986 2-724 partner): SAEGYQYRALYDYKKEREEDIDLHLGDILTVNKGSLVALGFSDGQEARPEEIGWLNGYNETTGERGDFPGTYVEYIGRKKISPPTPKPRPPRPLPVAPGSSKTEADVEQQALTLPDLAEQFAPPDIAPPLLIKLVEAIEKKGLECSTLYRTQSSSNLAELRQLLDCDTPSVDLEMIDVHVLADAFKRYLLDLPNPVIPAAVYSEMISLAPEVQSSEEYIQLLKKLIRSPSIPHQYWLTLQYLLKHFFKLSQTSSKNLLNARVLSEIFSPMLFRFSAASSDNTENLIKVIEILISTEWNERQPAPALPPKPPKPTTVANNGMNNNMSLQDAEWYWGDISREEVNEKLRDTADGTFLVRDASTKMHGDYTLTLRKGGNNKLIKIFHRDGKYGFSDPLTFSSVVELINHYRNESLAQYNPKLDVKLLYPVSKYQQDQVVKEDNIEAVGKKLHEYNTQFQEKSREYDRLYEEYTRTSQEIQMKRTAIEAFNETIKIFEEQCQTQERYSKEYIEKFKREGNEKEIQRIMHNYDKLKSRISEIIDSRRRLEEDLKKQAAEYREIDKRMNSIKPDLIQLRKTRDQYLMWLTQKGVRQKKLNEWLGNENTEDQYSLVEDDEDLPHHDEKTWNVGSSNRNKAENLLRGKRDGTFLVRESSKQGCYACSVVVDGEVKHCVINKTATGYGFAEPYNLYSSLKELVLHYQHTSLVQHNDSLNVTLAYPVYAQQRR

| SMILES | PI3Kβ IH % @ 1 uM (p110β/p85α) | PI3Kδ IH % @ 1 uM (p110δ/p85α) | IC50 (p110δ/p85α) | PI3Kγ IH % @ 1 uM (p110γ) | IC50 (p110γ) | IC50 (p110β/p85α) |
| --- | --- | --- | --- | --- | --- | --- |
| CCc1ccn2nc([C@@H]3CCN3c3ncnc4[nH]cc(C#N)c34)n(-c3ccccc3)c(=O)c12 [Compound 133, (S)-4-(2-(5-ethyl-4-oxo-3-phenyl-3,4-dihydropyrrolo[2,1-f][1,2,4]triazin-2-yl)azetidin-1-yl)-7H-pyrrolo[2,3-d]pyrimidine-5-carbonitrile] | 11.5% | 88.1% | 0.172 µM | 65.9% | – | – |
| Nc1nc(N2CCC[C@H]2c2nn3ccc(Cl)c3c(=O)n2-c2ccccc2)n2nccc2n1 [Compound 134, (S)-2-(1-(2-aminopyrazolo[1,5-a][1,3,5]triazin-4-yl)pyrrolidin-2-yl)-5-chloro-3-phenylpyrrolo[2,1-f][1,2,4]triazin-4(3H)-one] | 59.2% | >100% | 0.005 µM | >100% | 0.03 µM | – |
| Nc1nc(N2CC[C@H]2c2nn3ccc(Br)c3c(=O)n2-c2ccccc2)n2nccc2n1 [Compound 135] | 20.6% | 74.5% | 0.051 µM | >100% | 0.012 µM | – |
| Nc1nc(N2CC(F)(F)C[C@H]2c2nn3ccc(Cl)c3c(=O)n2-c2ccccc2)n2nccc2n1 [Compound 136] | 27.6% | 83.5% | 0.124 µM | 95.0% | 0.042 µM | – |
| Nc1nc(N2CC[C@H]2c2nn3ccc(Cl)c3c(=O)n2-c2ccccc2)n2nccc2n1 [Compound 137] | 35.9% | 96.8% | 0.036 µM | 89.3% | 0.013 µM | – |
| Nc1ncnc(N2CCC[C@H]2c2nn3ccc(Cl)c3c(=O)n2-c2ccccc2)n1 [Compound 138, (S)-2-(1-(4-amino-1,3,5-triazin-2-yl)pyrrolidin-2-yl)-5-chloro-3-phenylpyrrolo[2,1-f][1,2,4]triazin-4(3H)-one] | 42.3% | >100% | 0.012 µM | 95.0% | 0.075 µM | – |
| NC(=O)c1ccn2nc([C@@H]3CCCN3c3ncnc4[nH]cnc34)n(-c3ccccc3)c(=O)c12 [Compound 139, (S)-2-(1-(9H-purin-6-yl)pyrrolidin-2-yl)-4-oxo-3-phenyl-3,4-dihydropyrrolo[2,1-f][1,2,4]triazine-5-carboxamide] | 18.0% | 64.8% | – | 46.5% | – | – |
| N#Cc1c[nH]c2ncnc(N3CCC[C@H]3c3nn4ccc(C(N)=O)c4c(=O)n3-c3ccccc3)c12 [Compound 140] | 15.0% | >100% | 0.051 µM | 82.3% | 0.116 µM | – |
| N#Cc1c(N)ncnc1N1CC(F)(F)C[C@H]1c1nn2ccc(Cl)c2c(=O)n1-c1ccccc1 [Compound 141] | 28.2% | >100% | 0.005 µM | 92.3% | 0.151 µM | – |
| O=c1c2c(Cl)ccn2nc([C@@H]2CCN2c2ncnc3[nH]ccc23)n1-c1ccccc1 [Compound 142] | 13.5% | 81.1% | 0.298 µM | 75.5% | 0.39 µM | – |
| CS(=O)(=O)c1c[nH]c2ncnc(N3CC[C@H]3c3nn4ccc(Cl)c4c(=O)n3-c3ccccc3)c12 [Compound 143] | 63.0% | 88.8% | 0.07 µM | 82.3% | 0.095 µM | – |
| CS(=O)(=O)c1c[nH]c2ncnc(N3CCC[C@H]3c3nn4ccc(Cl)c4c(=O)n3-c3ccccc3)c12 [Compound 144] | 62.5% | >100% | 0.005 µM | 94.1% | 0.044 µM | – |
| O=c1c2c(Cl)ccn2nc([C@@H]2CCCN2c2ncnc3[nH]ccc23)n1-c1ccccc1 [Compound 145] | 55.5% | >100% | 0.002 µM | >100% | 0.009 µM | – |
| O=c1c2c(Cl)ccn2nc([C@@H]2CCCN2c2nc(F)nc3[nH]cnc23)n1-c1ccccc1 [Compound 146] | 77.9% | >100% | 0.001 µM | 97.3% | 0.009 µM | 0.12 µM |
| O=c1c2c(Cl)ccn2nc([C@@H]2CCCN2c2ncnc3[nH]cc(F)c23)n1-c1ccccc1 [Compound 147] | 65.3% | >100% | 0.001 µM | 94.3% | 0.004 µM | – |
| O=c1c2c(Cl)ccn2nc([C@@H]2CCN2c2ncnc3[nH]cc(F)c23)n1-c1ccccc1 [Compound 148] | 19.5% | 86.7% | 0.044 µM | 83.0% | 0.173 µM | – |

Now from value to compound:

| PI3Kβ IH % @ 1 uM (p110β/p85α) | PI3Kδ IH % @ 1 uM (p110δ/p85α) | IC50 (p110δ/p85α) | PI3Kγ IH % @ 1 uM (p110γ) | IC50 (p110γ) | IC50 (p110β/p85α) | SMILES |
| --- | --- | --- | --- | --- | --- | --- |
| −35.9% | 95.9% | 0.052 µM | 74.2% | 0.348 µM | – | COCc1ccn2nc([C@@H]3CCCN3c3ncnc4[nH]cnc34)n(-c3ccccc3)c(=O)c12 [Compound 149] |
| 31.5% | >100% | 0.003 µM | 92.6% | 0.092 µM | – | COCc1ccn2nc([C@@H]3CCCN3c3ncnc4[nH]cc(C#N)c34)n(-c3ccccc3)c(=O)c12 [Compound 150] |
| 11.4% | 52.4% | – | 22.8% | – | – | COCc1ccn2nc([C@@H]3CCCN3c3nc(N)ncc3C(F)(F)F)n(-c3ccccc3)c(=O)c12 [Compound 151] |
| 54.4% | 99.2% | 0.005 µM | 79.3% | 0.287 µM | – | N#Cc1c[nH]c2ncnc(N3CCOCC3c3nn4ccc(Cl)c4c(=O)n3-c3ccccc3)c12 (stereo not shown) [Compound 152] |
| 56.5% | >100% | – | 85.8% | – | – | O=c1c2c(Cl)ccn2nc([C@@H]2COCCN2c2ncnc3[nH]cnc23)n1-c1ccccc1 [Compound 153] |
| 56.7% | 97.6% | 0.003 µM | 93.7% | 0.04 µM | – | CC(Nc1nc(N)ncc1C(F)(F)F)c1cc2ncc(Cl)n2c(=O)n1-c1ccccc1 (stereo not shown) [Compound 154] |
| 56.0% | 96.4% | 0.023 µM | 94.9% | 0.133 µM | – | N#Cc1c[nH]c2ncnc(N3CCC[C@H]3c3nn4ccc(Cl)c4c(=O)n3Cc3ncccn3)c12 [Compound 155] |
| 42.2% | 83.4% | 0.169 µM | 64.0% | – | – | O=c1c2c(Cl)ccn2nc([C@@H]2CCCN2c2ncnc3[nH]cnc23)n1Cc1ncccn1 [Compound 156] |
| 39.5% | >100% | 0.021 µM | 79.9% | 0.28 µM | – | O=c1c2c(Cl)ccn2nc([C@@H]2C[C@H](F)CN2c2ncnc3[nH]cnc23)n1Cc1ccccn1 [Compound 157] |
| 71.1% | >100% | 0.006 µM | >100% | 0.046 µM | 0.473 µM | N#Cc1c[nH]c2ncnc(N3C[C@@H](F)C[C@H]3c3nn4ccc(Cl)c4c(=O)n3Cc3ccccn3)c12 [Compound 158] |
| 11.4% | 80.2% | 0.14 µM | 34.3% | – | – | N#Cc1c[nH]c2ncnc(N3CC(F)(F)C[C@H]3c3nn4ccc(Cl)c4c(=O)n3Cc3ccccn3)c12 [Compound 160] |
| 15.3% | 45.7% | – | −8.4% | – | – | O=c1c2c(Cl)ccn2nc([C@@H]2CC(F)(F)CN2c2ncnc3[nH]cnc23)n1Cc1ncccn1 [Compound 161] |
| 83.2% | >100% | 0.001 µM | 97.7% | 0.006 µM | 0.137 µM | N#Cc1c[nH]c2ncnc(N3CCC[C@H]3c3nn4ccc(Cl)c4c(=O)n3C3CCC3)c12 [Compound 162] |
| −3.2% | 31.3% | – | 0.6% | – | – | NC(=O)c1c[nH]c2ncnc(N3CC[C@H]3c3nn4ccc(Cl)c4c(=O)n3-c3ccccc3)c12 [Compound 163] |
| 22.9% | 62.3% | – | 64.9% | – | – | O=C(c1c[nH]c2ncnc(N3CCC[C@H]3c3nn4ccc(Cl)c4c(=O)n3-c3ccccc3)c12)N1CCOCC1 [Compound 164] |
| 71.3% | >100% | 0.001 µM | >100% | 0.002 µM | 0.4 µM | O=c1c2c(Cl)ccn2nc([C@@H]2CCN2c2ncnc3[nH]cc(C#CCO)c23)n1-c1ccccc1 [Compound 165] |
| >100% | 97.2% | 0.001 µM | >100% | 0.002 µM | 0.017 µM | Nc1ncc(-c2n[nH]c3ncnc(N4CCC[C@H]4c4nn5ccc(Cl)c5c(=O)n4-c4ccccc4)c23)cn1 [Compound 166] |
| 42.3% | >100% | 0.005 µM | >100% | 0.021 µM | – | Nc1ccc(-c2n[nH]c3ncnc(N4CCC[C@H]4c4nn5ccc(Cl)c5c(=O)n4-c4ccccc4)c23)cn1 [Compound 167] |
